# From PubChem BioAssay (NCI)
# “And” between values parts separate entries of the source, which are not always exact repeats. Identical values can stand only once.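 Each compound was tested at five concentrations against cells in 96-well plates for 48 hours. The concentration for 50% growth inhibition is given as GI50. TGI denotes the concentration required for complete inhibition of growth.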
# How the values were obtained:
# Assay in all cases: NCI tumour cell line growth inhibition, 48 h
# DLD-1 colon = tested on: DLD-1 colon
# DMS 114 small cell lung = tested on: DMS 114 small cell lung
# DMS 273 small cell lung = tested on: DMS 273 small cell lung
# KM20L2 colon = tested on: KM20L2 colon
# M19-MEL melanoma = tested on: M19-MEL melanoma
# SNB-78 CNS = tested on: SNB-78 CNS
# XF 498 CNS = tested on: XF 498 CNS
# P388 leukemia = tested on: P388 leukemia
# P388/ADR leukemia = tested on: P388/ADR leukemia
# SN12K1 renal = tested on: SN12K1 renal
Structure (SMILES),TGI (DLD-1 colon),TGI (DMS 114 small cell lung),TGI (DMS 273 small cell lung) [µM],TGI (KM20L2 colon) [µM],TGI (M19-MEL melanoma),TGI (SNB-78 CNS) [µM],TGI (XF 498 CNS) [µM],GI50 (DMS 114 small cell lung),TGI (P388 leukemia) [µM],TGI (P388/ADR leukemia) [µM],TGI (SN12K1 renal) [µM]
CC12CCC3C(CCC4CC(OC(=O)Cc5ccc(N(CCCl)CCCl)cc5)CCC43C)C1CCC(=O)N2 (centres undefined),33 µM,25.6 µM,25.6,31.2,33.5 µM,40.7,30.8,–,–,–,–
Cn1ccnc1C(O)(c1nccn1C)c1nccn1C,> 100 µM,> 100 µM,–,–,> 100 µM,> 100,> 100,–,–,–,–
COc1c(O)c2c3c(c(C)cc(O)c3c1O)C(=O)C(O)(C(C)(C)C(C)=O)C2=O (centres undefined),> 100 µM,28.2 µM and > 100 µM,> 100,> 100,28.1 µM and 35.3 µM,> 100,> 100,13.3 µM and 55.3 µM,–,–,–
CCN1CCCC(NCc2c3ccccc3c(CNC3CCCN(CC)C3)c3ccccc23)C1 (centres undefined),69.5 µM,16.1 µM,18.2,20.9,17.6 µM,> 73.1,> 52.1,–,9.25,33.8,23.1
Nc1nc(N)c(N=O)c(Nc2ccc(Br)cc2)n1,> 100 µM,52.1 µM,79.5,95.7,> 100 µM,> 100,65.4,–,–,–,–
CC(C(=O)N1C(=O)N(C(=O)C(C)C(O)c2ccccc2)C2CCCCC21)C(O)c1ccccc1 (centres undefined),–,–,> 100,> 100,> 100 µM,> 100,> 100,–,–,–,–
COc1cc2c(cc1OC)[C@H]1CN3CCC[C@H]3C=C1c1ccc(OC)c(O)c1-2,0.0109 µM and 0.0123 µM,0.00014 µM,0.000139,–,< 0.0001 µM,0.00049,–,–,–,–,–
CSC(=Nc1ccccc1)N(c1ccccc1)c1nc(=[N+](C)C)ss1,–,0.46 µM,2.2,13.7,4.98 µM,21.4,–,–,–,–,–
C=Cc1ccc(C)[n+](C[Si](C)(C)O[Si](C)(C)C[n+]2cc(C=C)ccc2C)c1,> 100 µM,> 100 µM,> 100,> 100,> 100 µM,> 100,–,–,–,–,–
CCC1=CC2CN3Cn4c(c(COCc5c6n(c7ccccc57)CN5CC7C=C(CC)C5C6(C(=O)OC)C7)c5ccccc54)C(C(=O)OC)(C2)C13,> 100 µM,> 100 µM,> 100,> 100,> 100 µM,–,> 100,–,–,–,–
